How the values were obtained:
Type in all cases: toxicity, cell-based
[1] = MMV: MTT Cytotoxicity Assay Day 3 pi, U87-CD4-CCR5 cells, % cell death @ 5mM compound; conditions: human, u87-cd4-ccr5, 5000 µM
[2] = MMV: MTT Cytotoxicity Assay Day 3 pi, U87-CD4-CXCR4 cells, % cell death @ 5mM compound; conditions: human, u87-cd4-cxcr4, 5000 µM
[3] = MMV: MTT Cytotoxicity Assay Day 7 pi of Assay #6 (compound washed out Day 1 pi), U87-CD4-CCR5 cells, % cell death @ 5mM compound; conditions: human, u87-cd4-ccr5, 5000 µM
[4] = MMV: MTT Cytotoxicity Assay Day 7 pi of Assay #7 (compound washed out Day 1 pi), U87-CD4-CXCR4 cells, % cell death @ 5mM compound; conditions: human, u87-cd4-cxcr4, 5000 µM
[5] = MMV: MTT Cytotoxicity Assay Day 7 pi of Assay #10 (NO washout), U87-CD4-CCR5 cells, % cell death @ 5mM compound; conditions: human, u87-cd4-ccr5, 5000 µM
[6] = MMV: MTT Cytotoxicity Assay Day 7 pi of Assay #11 (NO washout), U87-CD4-CXCR4 cells, % cell death @ 5mM compound; conditions: human, u87-cd4-cxcr4, 5000 µM

Row | Compound | % Cell Death [1] | % Cell Death [2] | % Cell Death [3] | % Cell Death [4] | % Cell Death [5] | % Cell Death [6]
1 | CN1CCN(c2c3c(c(C#N)c4nc5ccccc5n24)CCC3)CC1 | -3 | -10 | 1 | -15 | 8 | 16
2 | Cc1cc(N2CCCC2)nc(Nc2ccc(NC(=O)CCc3ccccc3)cc2)n1 | 14 | 30 | 20 | -12 | 0 | -21
3 | O=C(Nc1ccc(Cl)cc1)N1CCN(c2ccc3nncn3n2)CC1 | 108 | 22 | 83 | 87 | 92 | 98
4 | COc1cc(C(=O)Nc2ccc(-c3nc4ccccc4[nH]3)cc2)cc(OC)c1OC | -27 | 29 | -4 | -7 | 29 | -49
5 | COc1ccc2nc(N)nc(C)c2c1 | 15 | 34 | -35 | -3 | 17 | 15
6 | CCOC(=O)c1c(NC(=O)c2ccccc2)sc2c(O)c(CN(CC)CC)ccc12 | -7 | -8 | -2 | 40 | 25 | 25
7 | COc1ccccc1CNC(=O)CCn1c(=O)[nH]c2ccccc2c1=O | -7 | 12 | 7 | -15 | 16 | -16
8 | O=C(NC1CCCCC1)C(c1cccs1)N(CCc1ccccc1)C(=O)c1ccco1 (centres undefined) | 93 | 54 | 90 | 61 | 90 | 97
9 | CCOc1ccc(-n2cc(-c3ccccc3)c3c(SCc4cc(C)ccc4C)ncnc32)cc1 | 3 | 29 | 11 | -9 | -1 | 11
10 | O=C(CSc1ccc2nnc(-c3cccc(F)c3)n2n1)Nc1ccc2c(c1)OCO2 | 82 | 54 | 63 | 48 | 94 | 100
11 | COc1ccccc1CNC(=O)CCn1c(=O)[nH]c2ccsc2c1=O | 34 | 10 | -12 | -19 | -16 | -15
12 | CCOC(=O)c1cnc2ccc(Cl)cc2c1NCCCN(C)C | 17 | 26 | 3 | -14 | -6 | -22
13 | CCOc1ccc2c(c1)CN(Cc1ccc(Cl)cc1)CO2 | 8 | 32 | 11 | -14 | 13 | 20
14 | CC(C)(C)C(=O)Nc1ccc(C(=O)Nc2cccc(-c3nc4ccccc4[nH]3)c2)cc1 | 17 | 20 | 18 | -22 | 4 | 85
15 | CC(C)(C)c1ccc2c(c1)CN(Cc1ccc(Cl)cc1)CO2 | 64 | 37 | 66 | 18 | 23 | -36
16 | Nc1ccc(-c2nc3cc(Cc4ccc5[nH]c(-c6ccc(N)cc6)nc5c4)ccc3[nH]2)cc1 | 88 | 57 | 69 | 82 | 98 | 110
17 | CCOC(=O)C1(Cc2ccccc2)CCN(Cc2cccc(OC)c2O)CC1 | 0 | 29 | 15 | -16 | 21 | -36
18 | CCOc1c(Cl)cc(CNC(C)C(O)c2ccccc2)cc1OC (centres undefined) | -4 | 22 | 0 | -15 | 98 | -28
19 | O=C(Nc1ccc(-c2nc3ccccc3[nH]2)cc1)c1ccc(Cl)c(Cl)c1 | 38 | 39 | -9 | 20 | 33 | -46
20 | COc1ccc(C2c3ccc4ccccc4c3Oc3ncn(CCCN(C)C)c(=N)c32)cc1 (centres undefined) | 15 | 39 | -31 | -12 | -3 | -61

Row | Compound | % Cell Death [1] | % Cell Death [2] | % Cell Death [3] | % Cell Death [4] | % Cell Death [5] | % Cell Death [6]
21 | CCCCN(CCCC)S(=O)(=O)c1ccc(NC(=O)c2ccco2)cc1 | 58 | 45 | 36 | 41 | 74 | 39
22 | Cc1ccc(Cl)cc1N1CCN(CCCNC(=O)C2CCN(c3nc4ccccc4[nH]3)CC2)CC1 | 86 | 6 | 31 | -32 | 91 | 57
23 | COc1ccc(C2C(C(=O)Nc3cccc(OC)c3)c3ccccc3C(=O)N2C2CCCCC2)cc1 (centres undefined) | -65 | 15 | 18 | 22 | -8 | 37
24 | COc1ccc(NC(=O)C2c3ccccc3C(=O)N(CC(C)C)C2c2cccs2)cc1Cl (centres undefined) | 13 | 22 | 5 | -21 | -2 | -10
25 | CCOC(=O)c1cnc2ccc(CC)cc2c1O | 1 | 22 | 13 | -25 | 21 | 42
26 | COc1ccc2c(c1)OC(O)(C(F)(F)C(F)(F)F)CC2=O (centres undefined) | 42 | 47 | 37 | 4 | 62 | 88
27 | COc1cccc(Nc2nc(N)c3ccccc3n2)c1.Cl | -31 | 22 | 13 | -5 | -2 | -77
28 | CC1CN(C(=O)c2sc3ccccc3c2Cl)CC(C)O1 (centres undefined) | 107 | 47 | 7 | 45 | 124 | 105
29 | c1ccc2cc3c(Nc4ccc(N5CCOCC5)cc4)ccnc3cc2c1 | 91 | 97 | 99 | 98 | 106 | 108
30 | Oc1c2c(nc3cc(-c4ccccc4)nn13)CCCC2 | 37 | 6 | 26 | -10 | 1 | -22
31 | FC(F)(F)c1ccc(Nc2nnnc3ccccc23)cc1 | 67 | 28 | 44 | -10 | 121 | 90
32 | Cc1ccc(-c2cc3nc4c(c(O)n3n2)CCCC4)cc1 | 70 | 56 | 24 | 52 | 113 | 97
33 | CN1CCN(c2nc(Nc3ccc(O)cc3)nc3ccccc23)CC1.Cl | 11 | 32 | -8 | -23 | 43 | 110
34 | O=C(CCc1ccccc1)c1ccccc1OCC(O)CN1CCCCC1 (centres undefined) | 53 | 44 | 12 | 77 | 136 | 93
35 | O=C(c1ccccc1F)N(Cc1ccc(Cl)cc1)c1ccccn1 | 50 | 44 | 22 | -34 | 87 | 71
36 | CCOc1c(Br)cc(C2C(C(=O)OC)=CN(C)C=C2C(=O)OC)cc1OC | 30 | 21 | -1 | 19 | 30 | 30
37 | O=C(Nc1ccc(CN2CCOCC2)cc1)c1ccc(-c2ccc(Br)cc2)o1 | 20 | 15 | 14 | -2 | 96 | 6
38 | CCCN(CCC)CC(O)COc1ccccc1C(=O)Nc1ccccc1 (centres undefined) | 33 | 22 | -14 | 14 | 34 | -27
39 | N#Cc1nc(Cc2cccc3ccccc23)oc1N1CCN(C(c2ccccc2)c2ccccc2)CC1 | 112 | 101 | 78 | 93 | 109 | -30

Source: ChEMBL document CHEMBL3301472, “MMV Malaria Box HIV and cytotoxicity screening”
